Values of other authors in article doi:10.1101/2020.07.01.182659 (bioRxiv, 2020).

Assays:
[1] = test system: ACE2
[2] = test system: APJR
[3] = test system: opioid receptors

Substance | Km [1] [µM] | kcat/Km [1] [M⁻¹ s⁻¹] | affinity to APJR (in words) [2] | decrease of potency after cleavage of C-terminal phenylalanine [2] | ACE2 activity on peptide (in words) [1] | loss of potency on removal of C-terminal lysine [3] [%]
QRPRLSHKGPMP↓F [Apelin-13] | < 10 | > 1e+06 | nanomolar affinity | 2–5 fold | – | –
YGGFLRRIRPKL↓K [Dynorphin A 1–13] | < 10 | > 1e+06 | – | – | good ACE2 substrate | 90
YPFVEP↓I [β–Casomorphin] | – | – | – | – | good ACE2 substrate | –
